Test systems include ACHN renal; CAKI-1 renal; A498 renal; MDA-MB-231 breast; SNB-19 CNS; LOX IMVI melanoma; SR leukemia; SK-MEL-2 melanoma; MOLT-4 leukemia; HCC-2998 colon.
Common to all, as to assay: NCI-60 cell line screen, 48 h

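48-hour exposure; five concentrations; linearly interpolated endpoints. The concentration for 50% growth inhibition is given as GI50. The concentration for full growth arrest is given as TGI.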 Bounds are passed on as bounds.

`Cn1cnc([N+](=O)[O-])c1Sc1ncn[nH]1`: the GI50 was 76.1 µM with ACHN renal; 30.7 µM with CAKI-1 renal; above 100 µM in the test with A498 renal; above 100 µM in the test with MDA-MB-231 breast; above 100 µM in the test with SNB-19 CNS; above 100 µM in the test with LOX IMVI melanoma. Besides, the GI50 was 35.1 µM in the test on SR leukemia, 40.9 µM with SK-MEL-2 melanoma, above 100 µM in the test with MOLT-4 leukemia and above 100 µM in the test on HCC-2998 colon. The TGI in the test on ACHN renal, in the test on CAKI-1 renal, in the test on A498 renal, with MDA-MB-231 breast, in the test on SNB-19 CNS and in the test on LOX IMVI melanoma was above 100 µM in each case. Further, the TGI in the test on SR leukemia, in the test on SK-MEL-2 melanoma, in the test with MOLT-4 leukemia and in the test with HCC-2998 colon was above 100 µM in each case.

In the case of `Cc1cccc2c(N)c3ccccc3nc12`, the GI50 with ACHN renal is 0.561 µM; with CAKI-1 renal, 0.966 µM; with A498 renal, 0.604 µM; in the test on MDA-MB-231 breast, 1.26 µM; in the test on SNB-19 CNS it was 2.06 µM; with LOX IMVI melanoma, 0.616 µM. The GI50 with SR leukemia was 0.727 µM; with SK-MEL-2 melanoma it was 1.68 µM; in the test on MOLT-4 leukemia it was 0.556 µM; with HCC-2998 colon it was 1.24 µM. Moreover, the TGI with ACHN renal came out at 14.5 µM; in the test on CAKI-1 renal, 11.6 µM; with A498 renal it was 2.28 µM; in the test on MDA-MB-231 breast it was 5.26 µM; in the test with SNB-19 CNS, 16.7 µM; in the test with LOX IMVI melanoma, 3.66 µM. For the same compound, the TGI in the test with SR leukemia is 13.3 µM; in the test with SK-MEL-2 melanoma it was 3.84 µM; with MOLT-4 leukemia, 11.1 µM; in the test on HCC-2998 colon, 4.35 µM.

In the case of `CCN(CC)CCOc1ccc(C(=O)/C=C\c2ccc(Cl)cc2Cl)cc1`, the GI50 in the test with ACHN renal was 4.73 µM; with CAKI-1 renal, 10.5 µM; with A498 renal it was 12.3 µM; in the test with MDA-MB-231 breast, 4.92 µM; in the test with SNB-19 CNS it was 6.81 µM; in the test with LOX IMVI melanoma, 1.78 µM. Moreover, the values for the GI50 in the test with SR leukemia, in the test on SK-MEL-2 melanoma and in the test with HCC-2998 colon were 1.69 µM, 15 µM and 2.18 µM, respectively. In addition, the TGI in the test on ACHN renal worked out at 17.8 µM; in the test on CAKI-1 renal it was 22.3 µM; with A498 renal, 24.7 µM; in the test on MDA-MB-231 breast, 20.1 µM; in the test with SNB-19 CNS it was 24.4 µM; in the test with LOX IMVI melanoma it was 3.6 µM. The results for the TGI in the test on SR leukemia, with SK-MEL-2 melanoma and in the test on HCC-2998 colon were 5.34 µM, 28.5 µM and 4.65 µM, respectively.

For the compound `Cc1cccc(Nc2cnc(N)nc2N)c1`, the TGI with ACHN renal, in the test on CAKI-1 renal, with A498 renal, in the test with MDA-MB-231 breast, in the test on SNB-19 CNS and in the test on LOX IMVI melanoma was above 100 µM in each case. Also, the TGI in the test with SK-MEL-2 melanoma, in the test on MOLT-4 leukemia and with HCC-2998 colon was above 100 µM in each case.

As to `COC(=O)[C@@H](C)C[C@H](Cc1ccccc1)NC(=O)c1csc([C@@H](C[C@H](C(C)C)N(C)C(=O)[C@H](C)NC(=O)[C@H]2CCCCN2C)OC(C)=O)n1`, the GI50 with A498 renal was 1.87 µM; in the test on MDA-MB-231 breast, 1.24 µM; in the test on SNB-19 CNS, 0.901 µM; in the test on LOX IMVI melanoma it was 1.74 µM; in the test on SR leukemia, 0.452 µM; in the test with SK-MEL-2 melanoma, 0.929 µM. Also, the GI50 was 2.22 µM in the test on MOLT-4 leukemia and 1.75 µM in the test on HCC-2998 colon. Also, the TGI was 14.1 µM with A498 renal; above 25 µM in the test with MDA-MB-231 breast; above 25 µM in the test on SNB-19 CNS; above 25 µM in the test with LOX IMVI melanoma; above 25 µM in the test with SR leukemia; above 25 µM in the test with SK-MEL-2 melanoma. The TGI in the test on MOLT-4 leukemia and with HCC-2998 colon was above 25 µM each time.

Turning to `O=C1C=CC(O)C2C1CC13SSC4(CC5C(=O)C=CC(O)C5N4C1=O)C(=O)N23` (configuration not stated), the TGI came out at 0.835 µM with ACHN renal; 0.957 µM in the test with CAKI-1 renal; 6.26 µM with A498 renal; 0.947 µM in the test on MDA-MB-231 breast; 5.19 µM in the test on SNB-19 CNS; 0.193 µM in the test with LOX IMVI melanoma. Further, the TGI with SR leukemia is 0.0727 µM; in the test on SK-MEL-2 melanoma, 3.56 µM; with MOLT-4 leukemia, above 100 µM.

As to `Cc1nc(Nc2nc3ccccc3o2)nc(-c2cccc([N+](=O)[O-])c2)c1C(=O)Nc1ccc(F)c(Cl)c1`, the GI50 in the test on ACHN renal was 2.42 µM; in the test on A498 renal it was 0.853 µM; with MDA-MB-231 breast it was 1.88 µM; in the test on SNB-19 CNS, 2.32 µM; with LOX IMVI melanoma it was 2.78 µM; with SR leukemia, 2.6 µM. Besides, the GI50 in the test on SK-MEL-2 melanoma was 2.03 µM; in the test with MOLT-4 leukemia, 3.24 µM; with HCC-2998 colon, 3.26 µM. In addition, the TGI in the test on ACHN renal was 81.7 µM; with A498 renal, 3.5 µM; with MDA-MB-231 breast it was 4.82 µM; in the test with SNB-19 CNS it was above 100 µM; in the test on LOX IMVI melanoma it was above 100 µM; with SR leukemia, 15.1 µM. For the same compound, the TGI in the test with SK-MEL-2 melanoma is 4.73 µM; with MOLT-4 leukemia it was 16.9 µM; in the test on HCC-2998 colon it was above 100 µM.

In the case of `Cc1cc(OCc2nnc3n2N=C(c2ccc(Cl)cc2Cl)CS3)ccc1Cl`, the GI50 in the test with ACHN renal is 45.4 µM; with CAKI-1 renal it was 44.2 µM; in the test on MDA-MB-231 breast, 30.8 µM; in the test on SNB-19 CNS, 97.2 µM; in the test with LOX IMVI melanoma, 36.3 µM; in the test on SR leukemia, 43.3 µM. Besides, the GI50 is 76.2 µM in the test with SK-MEL-2 melanoma, 47.7 µM with MOLT-4 leukemia and 68.6 µM in the test with HCC-2998 colon. In addition, the TGI is above 100 µM with ACHN renal; above 100 µM in the test with CAKI-1 renal; 90.4 µM with MDA-MB-231 breast; above 100 µM in the test on SNB-19 CNS; above 100 µM with LOX IMVI melanoma; above 100 µM in the test with SR leukemia. The TGI in the test on SK-MEL-2 melanoma, in the test with MOLT-4 leukemia and in the test on HCC-2998 colon was above 100 µM each time.

For the compound `Cc1ncc([N+](=O)[O-])n1CCNC(=O)Cn1c([N+](=O)[O-])cnc1C`, the TGI with ACHN renal, with CAKI-1 renal, with A498 renal, in the test on MDA-MB-231 breast, in the test on SNB-19 CNS and with SR leukemia was above 100 µM each time. Moreover, the TGI in the test with SK-MEL-2 melanoma, with MOLT-4 leukemia and with HCC-2998 colon was above 100 µM in each case.

The record behind these values is PubChem BioAssay (NCI).
